# Tests used:
# [1] = tested on: Typhlodromus pyri; assay: LR50; higher = less toxic; settings: not reported; mortality
# [2] = tested on: Tagia sp.
# [3] = tested on: Rattus norvegicus
# [4] = tested on: Mus musculus; settings: acute; oral; mortality
# [5] = tested on: Canidae; settings: subchronic; duration: 90 days; oral; Dog Other; organ weight
# [6] = tested on: Daphnia magna; settings: chronic/long-term; duration: 21 days
# [7] = tested on: Anas platyrhynchos; settings: oral, mortality
# [8] = tested on: Oncorhynchus mykiss
# [9] = tested on: Apis mellifera; settings: acute; duration: 48 hours; oral; unspecified; mortality
# [10] = tested on: Colinus virginianus; settings: for LD50: acute, oral, mortality
smiles,measurement,setting,value
CC(C)N1C(=O)N(c2ccccc2)CSC1=NC(C)(C)C [Buprofezin],LR50,[1],> 3000 g/ha
same,LC50,"[2]; acute, duration: 14 days, mortality",> 1000 mg/kg
same,NOEC,"[2]; chronic/long-term, duration: 56 days, reproduction",500 mg/kg
same,LD50,"[3]; acute, oral, mortality",> 2000 mg/kg-day
same,NOAEL,"[3]; chronic, duration: 2 years, oral, diet, M/F, organ weight",0.9 mg/kg-day
same,NOAEL,"[3]; developmental, development",50 mg/kg-day
same,NOAEL,"[3]; reproduction developmental, body weight",66 mg/kg-day
same,LD50,[4],> 2000 mg/kg-day
same,NOAEL,[5],10 mg/kg-day
same,NOEC,[6],0.08 mg/L
same,LD50,"[7]; acute, unspecified",> 2000 mg/kg-day
same,LC50,"[7]; short-term, feed",> 1310 mg/kg-day
same,LC50,"[8]; acute, duration: 96 hours, mortality",> 0.33 mg/L
same,NOEC,"[8]; chronic/long-term, growth",0.052 mg/L
same,LD50,[9],> 164 µg/piece
same,LD50,[10]; diet,> 1310 mg/kg-day
same,LD50,[10],> 2000 mg/kg-day
same,NOEC,"[10]; developmental, development",48 mg/kg-day
same,NOEC,"[10]; reproduction developmental, reproduction",198 mg/kg-day

# — EPA's ToxValDB 9.5 (doi:10.2903/j.efsa.2008.128r)
